The subject of series [1] is Common Poinsettia plants (Euphorbia pulcherrima) cv Prestige Red. Kind of series: Phytotoxicity on poinsettia plants (Example 4).
Series [2] has as its system Silverleaf whitefly (Bemesia argentifolii). Kind of series: Silverleaf whitefly suppression on sprayed poinsettia (Example 4). In kind it is in vivo. The conditions noted are these: whitefly nymphs, two sprays 7 days apart, sunlight 2 days; for Insects Suppression, % 6 DAT2: 6 days after second application; for Insects Suppression, % 13 DAT2: 13 days after second application. As to the method:
The experiments were conducted in a greenhouse. Whiteflies were maintained on Common Poinsettia plants (Euphorbia pulcherrima) cv Prestige Red in the Greenhouse. Host plants and experimental plants were not initially exposed to pesticide treatments.
Experimental poinsettia plants were grown in 6.5″ plastic pots filled with Sunshine #4 soil mix. The plants were irrigated every day and soluble fertilizer 20-20-20 @ 200 ppm was applied twice weekly.
The poinsettia plants were placed into a whitefly infected greenhouse for 30 days to obtain uniform colonies of insect nymphs on the plants. After 30 days, the infested plants were moved from the infested greenhouse and placed outside of the greenhouse for a two-day adaptation period prior to the treatment. Whitefly nymph population was counted one day prior to the treatment using the discs method.
Two 5.47 cm^2 discs were taken from each replicate, insects were observed under a stereoscope and counted. The discs were taken from the randomly collected leaves from the mid to upper strata areas of the plant as this area is preferred by insects for eggs laying and nymphs development. Upon initiation of the experiment the whitefly population was considered uniform.
Treatments were applied two times with a 7-day interval using CO2 backpack sprayer with a single hollow cone nozzle (TVXK-3) at 40 psi. Plants were thoroughly sprayed with tested treatments and immediately exposed to direct sunlight for 2 days before returning to the greenhouse setting. For each treatment, six single plant replicates were used. After 2 days of outside sun exposure, all plants were carefully moved into the separate greenhouse and placed on a wire mesh bench in a Completely Randomized design. A second application of treatments was made 7 days after the first application using the same methodology.
The number of whitefly nymphs per disc was counted at 6 and 13 days after second foliar application (6 DAT2, 13DAT2). The Plants were evaluated for phytotoxicity at 6 days after each foliar spray.

Series [3] deals with Common Poinsettia plants (Euphorbia pulcherrima). The conditions noted are these: 0=healthy plants, 10=dead plants. As to the method: Poinsettia plants were evaluated for phytotoxicity after treatments. Phytotoxicity on the plants was rated 0 to 10, where 0=healthy plants, 10=dead plants at 6 DAA and 13DAA. Ratings were based on visual observations for symptoms such as chlorosis, necrosis, deformation, stunting and compared to plants in the untreated control.

Series [4] concerns Silverleaf whitefly (Bemesia argentifolii). Kind of series: Silverleaf whitefly live nymph count on sprayed poinsettia (Example 3). The conditions noted are these: for Mean number of whitefly live nymphs/sample −1 DAA: 1 day before treatments application (baseline); for Mean number of whitefly live nymphs/sample 6 DAA: 6 days after first application, sunlight 8 h after spray; for Mean number of whitefly live nymphs/sample 13 DAA: 13 days after first application (6 days after application 2); for Mean number of whitefly live nymphs/sample 20 DAA: 20 days after first application (13 days after application 2); for Mean number of whitefly live nymphs/sample 28 DAA: 28 days after application 1 (21 days after application 2). In kind it is in vivo. Here is the method:
The experiments were conducted in a greenhouse. Whiteflies were maintained on Common Poinsettia plants (Euphorbia pulcherrima) in the Greenhouse. Host plants and experimental plants were not initially exposed to pesticide treatments.
Experimental poinsettia plants were grown from the plug stage in 6.5″ plastic pots filled with Sunshine #4 soil mix. The plants were irrigated every day and soluble fertilizer 20-20-20 @ 200 ppm was applied twice weekly.
The poinsettia plants were placed for 7 days to whitefly infected the greenhouse to obtain uniform colonies of insect nymphs on introduced plants. After 7 days, the plants were removed from the infested greenhouse and whitefly nymph population was counted using the discs method.
Two 5.47 cm^2 discs were taken from each plant replicate, insects were observed under a stereoscope and counted. The discs were taken from the mid to upper strata areas of the plant as this area is preferred by insects for eggs laying and nymphs development. Upon initiation of the experiment the whitefly population was considered uniform.
Treatments were applied with CO2 backpack sprayer with a single solid cone nozzle (TG1) at 60 psi. Plants were thoroughly sprayed with tested treatments and immediately exposed to direct sunlight for 8 h before returning to the greenhouse setting. For each treatment, five single plant replicates were used. After 8 h of outside sun exposure all plants were carefully moved into the greenhouse and placed on a wire mesh bench in RCB design. A second application of treatments was made 7 days after the first application using the same methodology.
The number of whitefly nymphs per disc was counted at 1 day before treatments application (DAA), 6 days after first application (DAA), 13 days after first application (or 6 days after application 2), 20 days after first application 1 (or 13 days after application 2) and 28 days after application 1 (or 21 days after application 2).

Series [5] concerns German cockroach (Blatella germanica). Kind of series: German cockroach nymph suppression, treatment fed in 1% sucrose solution, light or dark. In kind it is in vivo. The conditions noted are these: cockroach nymphs. Here is the method:
A small German cockroach colony (Blatella germanica) was purchased from Benzon Research (USA). Cockroach mix sex nymphs were used as model insect.
The experiments were conducted in a lab. Insectary at 25° C. in light and dark conditions. Light condition: 12 h light/12 h dark photoperiod. During the light period insects were exposed to Spectrum Physio Spec Indoor LED light 250 μmol m^−2 s^−1 Dark condition: insects were kept in complete dark. Insects were fed prior to treatments with 1% sucrose solution and were anesthetizing in the fridge for a few minutes before handling.
Ten homogenous cockroach nymphs (3-4 instar) were carefully transferred into each half pint clear glass jar abraded internally to provide surface for climbing and lined with 9 cm in diameter filter paper. The treatments were administered to cockroaches in a 1% sucrose solution positioned in 10 ml glass vials abraded externally for easy climbing insects and placed in jars. Fresh treatment solutions were replaced each 3 days. Glass jars were covered with mesh. […] Completely randomized design with 4 replications per treatment was used.
Treated insects were kept under specific conditions for 14 days and mortality count was performed at 7 and 14 days after exposure to treatments.

For series [6], the system named is potato aphids (Macrosiphum euphorbiae). The conditions noted are these: for Mean Insects Mortality, % 24 HAT / Mean Insects Mortality, % 48 HAT: LED light exposure 14 h after treatment. Here is the method:
Potato aphids (Macrosiphum euphorbiae) were obtained from a colony maintained on Bell pepper (Capsicum annuum L.) plants grown in 1-gal plastic pots containing soil mix for greenhouse use (Sunshine LC1, Sun Gro Horticulture Canada Ltd.). Plants were watered as needed and fertilized twice a week with 20-20-20 water soluble fertilizers. Host plants were not exposed to pesticide treatments.
Pepper leaves infested with aphid nymphs were collected and each leaf was placed in 50 ml vials filled with water. Vials were covered with the lead with a small opening to prevent insects from drowning. Vials with host plant leaf infested with insects were placed in 500 ml transparent plastic containers and covered with transparent leads.
All treatments were applied as a fine spray using a hand-held plastic spray bottle. Each treatment was replicated 4 times. Water treatment was used as a Control.
After 14 h of exposure to LED light or dark insects were kept at a regular 14 h/10 h (light/night) photoperiod. Containers with insects were arranged in a randomized fashion. The experimental rack was placed in the Plant Growth Room at 24-25° C.
The number of live aphids on each leaf (replicate/container) was counted before application of the treatments, as well as 24 h and 48 h after the treatments. The insects were examined using 10× magnifying glass. Aphids were considered dead if no movement was detected after mechanical stimulation with the paintbrush.
Percentage of mortality was calculated by using the numbers of live and dead aphids. Percentage of mortality was rated as zero, when number of insects in the sample increased during the experiment (aphids females gave birth to nymphs).

The subject of series [7] is Citrus Mealybug (Planococcus citri Risso). The series can be described thus: Mealybug exposure to direct spray in petri dishes, instar mortality. In kind it is in vivo. The conditions noted are these: mealybug instars sprayed in petri dishes, simulated daylight (LED) 14 h. Here is the method:
(§1) Colonies of Citrus Mealybug (Planococcus citri Risso) were maintained on Coleus plants (Solenostemon Scutellarioides L. Codd) grown in a Greenhouse under 24±4° C. and 16 h light/8 h dark photoperiod. […] Host plants were not initially exposed to pesticide treatments.
(§2) Small crowns of coleus shoots (4-6 cm in height, 6-7 leaves) were excised from the mature healthy plant and inserted into water-filled 50 ml plastic vials.
(§3) Homogenous mealybug instars-crawlers were carefully collected from the infested coleus plants using tip-moist soft fine paintbrush into a petri dish lined with filter paper. A total of 20 mealybug instars were released on upper leaves of each coleus shoot. […] Rack was located in the Plant Growth Room at 24-25° C.
(§4) Each treatment was replicated 4 times. Water treatment was used as a Control.
(§5) Insects were examined using 10×magnifying glass. […] The number of live and dead insects were recorded. Insect mortality was assessed for up to 96 hours after treatment (HAT-hours after treatment).
(§6) Percentage of citrus mealybug mortality for each treatment was calculated and data was subjected to One-way ANOVA combine with All Pairwise Multiple Comparison Procedures using the Fisher protected LSD mean separation test, […].
Mealybug instars were transferred into plastic containers lined with filter paper, sprayed and immediately exposed to light for […]. […]

The test system is the same in series [8]. Kind of series: Mealybug exposure to direct spray on plants (coleus shoots), instar mortality. In kind it is in vivo. Here is the method:
as §1, §2, §3, §4, §5, §6
Mealybug were introduced to coleus shoots. Two hours later, the shoots were sprayed with photosensitizer and placed under the light for 14 hours.

Consider `C=CC1=C(C)c2cc3[nH]c(cc4nc(cc5[nH]c(cc1n2)c(C)c5CCC(=O)[O-])C(CCC(=O)[O-])=C4C)c(C)c3C=C.[Na+].[Na+]` [0.1% PPIX, Protoporphyrin sodium salts], for which the “Phytotoxicity % 13 DAT2” value in series [1] is recorded as 0%. For the same compound, in series [2], the “Insects Suppression, % 6 DAT2” value worked out at 41% and the “Insects Suppression, % 13 DAT2” value is listed as 28%.
On to `O=C([O-])CN(CCN(CC(=O)[O-])CC(=O)O)CC(=O)O.[Na+].[Na+]` [0.1% Na2EDTA, Na2EDTA], for which, in series [3], the “Phytotoxicity (0-10) 6 DAA” value is 0, the “Phytotoxicity (0-10) 13 DAA” value is 0, the “Phytotoxicity (0-10) 20 DAA” value was 0 and the “Phytotoxicity (0-10) 28 DAA” value is on record as 0. Besides, in series [4], the “Mean number of whitefly live nymphs/sample −1 DAA” value was 93 nymphs/sample, the “Mean number of whitefly live nymphs/sample 6 DAA” value is on record as 53 nymphs/sample, the “Mean number of whitefly live nymphs/sample 13 DAA” value was 69.7 nymphs/sample and the “Mean number of whitefly live nymphs/sample 20 DAA” value stood at 89.9 nymphs/sample. In series [4], the “Mean number of whitefly live nymphs/sample 28 DAA” value is 44.3 nymphs/sample. The “Phytotoxicity % 13 DAT2” value in series [1] was found to be 0%. Also, the “Insects Suppression %, 14 DAT, Light (12/12 h light-dark)” value in series [5] (LED 250 μmol m^−2 s^−1, 12 h light/12 h dark) was 33%. The “Insects Suppression %, 14 DAT, Dark” value in series [5] (complete dark) was determined as 0%. In addition, in series [6] (24 HAT), the “Mean Insects Mortality, % 24 HAT” value is recorded as 6%. Also, the “Mean Insects Mortality, % 48 HAT” value in series [6] (48 HAT) worked out at 20%. Besides, in series [2], the “Insects Suppression, % 6 DAT2” value came to 36% and the “Insects Suppression, % 13 DAT2” value was 31%.
Regarding `O=S(=O)([O-])c1ccc(-c2c3nc(c(-c4ccc(S(=O)(=O)[O-])cc4)c4ccc([nH]4)c(-c4ccc(S(=O)(=O)O)cc4)c4nc(c(-c5ccc(S(=O)(=O)[O-])cc5)c5ccc2[nH]5)C=C4)C=C3)cc1.[Na+].[Na+].[Na+]` [0.1% TPPS-Na3, meso-tetra-(4-sulfonatophenyl) porphyrin trisodium salts], the “Phytotoxicity % 13 DAT2” value in series [1] was 0%. In series [2], the “Insects Suppression, % 6 DAT2” value came out at 37% and the “Insects Suppression, % 13 DAT2” value is 52%.
The corresponding values for chlorin e6 [0.1% Ce6] are 0%, 27% and 28%.
As to Mg-Chlorophyllin [0.2 wt % MgChln], in series [3], the “Phytotoxicity (0-10) 6 DAA” value stood at 0, the “Phytotoxicity (0-10) 13 DAA” value is 0, the “Phytotoxicity (0-10) 20 DAA” value turned out to be 0 and the “Phytotoxicity (0-10) 28 DAA” value came out at 0. In series [4], the “Mean number of whitefly live nymphs/sample −1 DAA” value is 111.4 nymphs/sample, the “Mean number of whitefly live nymphs/sample 6 DAA” value worked out at 68 nymphs/sample, the “Mean number of whitefly live nymphs/sample 13 DAA” value stood at 56.6 nymphs/sample and the “Mean number of whitefly live nymphs/sample 20 DAA” value amounted to 74.8 nymphs/sample. Also, in series [4], the “Mean number of whitefly live nymphs/sample 28 DAA” value was 30.1 nymphs/sample. The “Insect Mortality, % 24 HAT” value in series [7] (24 hours after treatment) was 32.8%. In addition, the “Insect Mortality, % 96 HAT” value in series [7] (96 hours after treatment) was 46.3%. Moreover, in series [6] (24 HAT), the “Mean Insects Mortality, % 24 HAT” value worked out at 24%. The “Mean Insects Mortality, % 48 HAT” value in series [6] (48 HAT) was determined as 24%. Moreover, the “Mean Insect Mortality, % 24 HAT” value in series [6] (no light exposure (dark), dark exposure 24 h, 24 HAT) is listed as 5%. Also, the “Mean Insect Mortality, % 48 HAT” value in series [6] (no light exposure (dark), dark exposure 24 h, 48 HAT) came out at 17%. In addition, the “Insect mortality, in words” value in series [8] (infested plants sprayed, at 24 and 96 HAT) is on record as “significant insect mortality”. For the same compound, the “Insect Mortality, % 24 HAT” value in series [8] (mealybugs on coleus shoots sprayed, light 14 h, 24 hours after treatment) was 50%. In addition, the “Insect Mortality, % 96 HAT” value in series [8] (mealybugs on coleus shoots sprayed, light 14 h, 96 hours after treatment) is 68.8%.

(Values after US20220132856A1, “PHOTOSENSITIZER AND CHELATING AGENT COMBINATIONS FOR USE AS INSECTICIDES” (SUNCOR ENERGY INC., priority 2019, published 2022).)
